Source: patent US10509046B2, “Detection of indazole synthetic cannabinoids” (Randox Laboratories Limited, priority 2014, dated 2019)

Columns and labels:
[1] = tested on: AB-PINACA antibody (raised against immunogen 2 of Example 6); assay: AB-PINACA ELISA, final validated kit with Tracer-2 (Example 10), specificity; assay type: binding; conditions: for % Cross-Reactivity: AB-PINACA N-Pentanoic acid = 100
Procedure: A microtitre plates was precoated with AB-PINACA antibody (raised against immunogen 2 of Example 6). Pinaca derivative (antigen), if present in the sample competes with the horseradish peroxidase labelled AB-PINACA (enzyme labelled antigen, herein Tracer-2 of Example 8) for a limited number of antibody sites on the microtitre plate. After incubation at room temperature to allow a competition reaction to take place, the microtitre plate was washed to remove excess reagents. The enzyme substrate ([…]) was added. After an incubation period to allow maximum colour development, the colour reaction was stopped by the addition of acid. This produces a colour change from blue to yellow, and the absorbances are read at 450 nm. A standard curve was then constructed to determine the Pinaca derivative's concentration in the sample.
All reagents were left to reach room temperature (+15 to +25° C.) prior to use. In order to minimise edge effects microtitre plate was sealed with an adhesive plate sealer.
The assay was performed in duplicate. The following layout was used for a test plate where each box represents 2 wells.
• a) The following was pipetted into the appropriate wells of the microtitre plate:
• b) The microtitre plate was gently tapped plate from side to side for a few seconds. • c) The microtitre plate was covered with a plate sealer before incubating for 30 minutes at room temperature (+15 to +25° C.) in the dark. • d) The plate was inverted and the liquid was tapped out. • e) The plate was washed 6 times with diluted wash buffer (ensuring all wells were filled), over a 10-15 minute period. After the final wash the liquid was discarded and the plate was tapped onto lint free tissue paper until completely dry. • f) Immediately after washing, 125 μL of the one shot substrate II solution was pipetted into each well using a multichannel pipette. The microtitre plate was gently tapped from side to side and incubated for (20±2 minutes) at room temperature (+15 to +25° C.) in the dark. • g) The colour reaction was stopped by the addition of 100 μL of stop solution per well. A colour change from blue to yellow should be evident. • h) The optical density was measured at 450 nm within 10 minutes of stopping the colour reaction. The use of a 630 nm filter is recommended as the reference wavelength, if available. Standard Curve and Interpretation of Results • a) The mean absorbance of the standards, controls and samples were calculated. • b) The absorbances of standards against log10 (standard concentration) were plotted. • c) The control and sample concentrations were read from the standard curve. • d) To obtain concentrations for urine samples in ng/mL, the results were multiplied by 3 to take into account the dilution factor. • e) To obtain concentrations for whole blood samples in ng/mL, the results were multiplied by 4 to take into account the dilution factor. • f) It is recommended that a 4 parameter curve fit method is used when generating the standard curve. Limits of Detection

[2] = tested on: Antibody to AB-Pinaca-KLH (raised against immunogen 2 of Example 6); assay: Competitive ELISA characterising antibodies to AB-Pinaca-KLH with Tracer-1 (Example 9); assay type: binding; conditions: for % CR (percentage cross-reactivity): AB-Pinaca = 100.00; for IC50 (standard concentration which produces 50% inhibition of maximal signal): calibration curves 0-20 ng/ml
Procedure: The wells of an enhanced binding 96 well polystyrene microtitre plate were coated with IgG fraction of antiserum raised to AB-Pinaca-KLH (Immunogen 2 of Example 6), diluted in 10 mM Tris, pH8.5 (125 μl/well). The appropriate antibody coating dilution was determined using standard ELISA checkerboard techniques. The plate was incubated for 2 hours at 37° C., washed 4 times over 10 minutes with Tris buffered saline containing Tween 20 (TBST) and tapped dry. Standard solutions of AB-Pinaca pentanoic acid were prepared in TBST at 0, 0.31, 0.63, 1.25, 2.50, 5.0, 10.0 and 20.0 ng/ml, and 50 μl of each was added to the appropriate wells. 75 μl of Tracer-1 (Example 7) diluted in Tris buffer (pH 7.2) containing EDTA, D-mannitol, sucrose, thimerosal and BSA, was added to each of the wells. The appropriate dilution of tracer was also determined using standard ELISA checkerboard techniques. The plate was incubated at 25° C. for 1 hour. Excess unbound tracer was removed by washing 6 times over a 10-15 minute period with TBST and tapped dry. 125 μl of tetramethylbenzidine (TMB) substrate solution was added to each well of the plate that was then incubated for 20 minutes in the dark at room temperature. The reaction was terminated by addition of 125 μl 0.2 M H2SO4 to each well. The absorbance was measured at 450 nm using a microtitre plate reader. In order to determine the specificity of the competitive ELISAs, standard solutions of a range of structurally similar compounds were prepared in TBST. Using calibration curves generated from these compounds (0-20 ng/ml), the cross-reactivity was determined.

SMILES	% Cross-Reactivity [1] [%]	% CR (percentage cross-reactivity) [2] [%]	IC50 (standard concentration which produces 50% inhibition of maximal signal) [2] [ng/mL]	B/Bo (Percentage B/B0) ([2]; standard conc 0.31 ng/ml) [%]	OD (absorbance at 450 nm) ([2]; standard conc 0.31 ng/ml)	B/Bo (Percentage B/B0) ([2]; standard conc 0.63 ng/ml) [%]	OD (absorbance at 450 nm) ([2]; standard conc 0.63 ng/ml)	B/Bo (Percentage B/B0) ([2]; standard conc 1.25 ng/ml) [%]	OD (absorbance at 450 nm) ([2]; standard conc 1.25 ng/ml)	B/Bo (Percentage B/B0) ([2]; standard conc 2.50 ng/ml) [%]	OD (absorbance at 450 nm) ([2]; standard conc 2.50 ng/ml)	B/Bo (Percentage B/B0) ([2]; standard conc 5.00 ng/ml) [%]	OD (absorbance at 450 nm) ([2]; standard conc 5.00 ng/ml)	B/Bo (Percentage B/B0) ([2]; standard conc 10.00 ng/ml) [%]	OD (absorbance at 450 nm) ([2]; standard conc 10.00 ng/ml)	B/Bo (Percentage B/B0) ([2]; standard conc 20.00 ng/ml) [%]	OD (absorbance at 450 nm) ([2]; standard conc 20.00 ng/ml)	Concentration of compounds that elicit a negative response at the indicated concentration [1] [ng/mL]
CCCCCn1nc(C(=O)NC(C(N)=O)C(C)C)c2ccccc21 (stereo not shown) [AB-Pinaca, N-(1-amino-3-methyl-1-oxobutan-2-yl)-1-pentyl-1H-indazole-3-carboxamide]	52.4	100.00	1.107	70.1	1.532	60.7	1.325	47.4	1.036	35.6	0.778	27.2	0.593	18.5	0.404	12.2	0.267	
CC(C)C(NC(=O)c1nn(CCCCCO)c2ccccc12)C(N)=O (stereo not shown) [1-(5-OHpentyl) AB-Pinaca, 1-(5-hydroxypentyl) AB-Pinaca]	83.8	124.80	0.887	68.9	1.415	56.6	1.163	43.6	0.896	33.6	0.690	24.5	0.504	17.3	0.356	11.8	0.242	
CC(C)C(NC(=O)c1nn(CCCCC(=O)O)c2ccccc12)C(N)=O (stereo not shown) [AB-Pinaca pentanoic acid]	100	64.25	1.723	77.4	1.698	69.7	1.529	55.8	1.223	42.2	0.926	30.7	0.673	21.2	0.465	14.5	0.317	
CC(C)(C)C(NC(=O)c1cn(CCCCCF)c2ccccc12)C(N)=O (stereo not shown) [5-Fluoro ADBICA]	4.7																	
CCCCCn1c(C)c(C(=O)c2cccc3ccccc23)c2ccccc21 [JWH-007]																		100
CCCCCn1cc(C(=O)c2ccc(OC)c3ccccc23)c2ccccc21 [JWH-081]																		100
CCCn1c(C)c(C(=O)c2cccc3ccccc23)c2ccccc21 [JWH-015]																		100
CCCCn1cc(C(=O)c2cccc3ccccc23)c2ccccc21 [JWH-073]																		100
CC(C)C(NC(=O)c1nn(Cc2ccc(F)cc2)c2ccccc12)C(N)=O (stereo not shown) [AB-Fubinaca, N-(1-amino-3-methyl-1-oxobutan-2-yl)-1-(4-fluorobenzyl)-1H-indazole-3-carboxamide]	35.3	71.60	1.546	72.0	1.541	64.4	1.379	52.3	1.120	42.7	0.915	32.4	0.695	22.9	0.491	15.7	0.337	
O=C(O)CCCCn1cc(C(=O)NC23CC4CC(CC(C4)C2)C3)c2ccccc21 [SDB-001 N-Pentanoic acid]	<1																	
CCCCCn1nc(C(=O)Nc2cccc3ccccc23)c2ccccc21 [MN-18]	<1																	
CC(C)C(NC(=O)c1nn(CCCCCF)c2ccccc12)C(N)=O (stereo not shown) [5-fluoro AB-Pinaca, 5-fluoropentyl AB-Pinaca]	98.9	203.49	0.544	60.2	1.351	47.7	1.070	36.5	0.819	28.0	0.629	20.6	0.462	14.5	0.326	10.1	0.227	
O=C(c1cccc2ccccc12)c1cn(CCCCCO)c2ccccc12 [JWH-018 N-(5-Hydroxypentyl)]																		100
O=C(O)CCCCn1cc(C(=O)c2cccc3ccccc23)c2ccccc21 [JWH-018 N-Pentanoic acid]																		100
